# Where two headings read alike, the source gives them in different places.
# Legend:
# [1] = molecular target: T1, His6-TEV-PPARγ-(234-505) (Homo sapiens, UniProt P37231); assay: TR-FRET Assay to Measure Co-R Peptide Recruitment to PPARγ; format: biochemical; details: Co-R peptide (SMRT-ID2) recruitment; top final concentration 20 μM; read-out: TR-FRET i-Ag; AC50
# T1 construct: The His6-TEV-PPARγ-(234-505) protein for assay was expressed and purified; TEV cleavage site (N); made in house
# T1 sequence (P37231 234-505): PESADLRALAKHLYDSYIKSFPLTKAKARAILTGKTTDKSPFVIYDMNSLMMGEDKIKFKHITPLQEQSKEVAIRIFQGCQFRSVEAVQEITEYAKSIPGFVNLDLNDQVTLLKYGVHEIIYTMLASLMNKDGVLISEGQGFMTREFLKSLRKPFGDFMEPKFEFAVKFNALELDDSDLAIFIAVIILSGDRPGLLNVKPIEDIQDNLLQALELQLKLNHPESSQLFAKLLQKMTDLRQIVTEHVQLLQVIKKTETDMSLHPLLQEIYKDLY
# Summary of the method: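 His-tagged PPARγ (or controls) was preincubated with compound for 20 minutes at room temperature, then 5 nM anti-His terbium antibody and 200 nM FITC-labeled SMRT-ID2 corepressor peptide (final) were added for a further hour. TR-FRET signal was normalized to percent response using 500 nM T0070907 and DMSO controls.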
# [2] = test system: UM-UC-9 engineered cells; assay: Cell proliferation / short-term viability assay, CellTiter-Glo 144 h; format: cell-based, human; details: read-out: CTGlo 144 h UMUC9.5, G150
# Summary of the method: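 UM-UC-9 engineered assay-ready cells seeded at 500 cells/well in high-glucose DMEM/10% FBS, treated from dose-response plates, grown at 37° C, 5% CO2. CellTiter-Glo 2.0 luminescence read on day 7, with a day-0 pretreatment plate as T0 reference and DMSO wells as negative control.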
Compound,AC50 [1],"IC50 ([2]; Homo sapiens, UM-UC-9, 144 h)",IC50 [2]
"COc1cc(-c2cc(C(=O)N3CC[C@@H](C(=O)NCc4cccc(Cl)c4)CC34CC4)n[nH]2)c(Cl)cn1 (single isomer, unassigned) [Example 245-B]",109 nM,415 nM,–
"COc1cc(-c2cc(C(=O)N3CC[C@H](C(=O)NCc4cccc(Cl)c4)CC3(C)C)n[nH]2)c(Cl)cn1 (single isomer, unassigned) [Example 255-A]",49.6 nM,141 nM,–
"COc1cc(-c2cc(C(=O)N3CC[C@@H](C(=O)NCc4cccc(Cl)c4)CC3(C)C)n[nH]2)c(Cl)cn1 (single isomer, unassigned) [Example 255-B]",1760 nM,4120 nM,–
"COc1cc(-c2cc(C(=O)N3CC[C@H](C(=O)NCc4cccc(Cl)c4)CC34CCC4)n[nH]2)c(Cl)cn1 (single isomer, unassigned) [Example 256-A]",92.4 nM,72.6 nM,–
"COc1cc(-c2cc(C(=O)N3CC[C@@H](C(=O)NCc4cccc(Cl)c4)CC34CCC4)n[nH]2)c(Cl)cn1 (single isomer, unassigned) [Example 256-B]",15900 nM,3520 nM,–
"COc1cc(-c2cc(C(=O)N3[C@@H]4CC[C@H]3C[C@H](C(=O)NC3CCC(C(F)(F)F)OC3)C4)n[nH]2)c(F)cn1 (single isomer, unassigned) [Example 280-A]",895 nM,5800 nM,–
"COc1cc(-c2cc(C(=O)N3CC[C@@H](C(=O)N[C@H]4CC[C@@](O)(C(F)(F)F)CC4)CC34CC4)n[nH]2)c(Cl)cn1 (single isomer, unassigned) [Example 286-A]",304 nM,460 nM,–
"COc1cc(-c2cc(C(=O)N3CC[C@H](C(=O)N[C@H]4CC[C@@](O)(C(F)(F)F)CC4)CC34CC4)n[nH]2)c(Cl)cn1 (single isomer, unassigned) [Example 286-B]",2.2 nM,1.5 nM,–
"Cc1cc(-c2cc(C(=O)N3CC[C@H](C(=O)N[C@H]4CC[C@@](O)(C(F)(F)F)CC4)CC34CC4)n[nH]2)c(F)cn1 (single isomer, unassigned) [Example 287-A]",2.3 nM,2.4 nM,–
"Cc1cc(-c2cc(C(=O)N3CC[C@@H](C(=O)N[C@H]4CC[C@@](O)(C(F)(F)F)CC4)CC34CC4)n[nH]2)c(F)cn1 (single isomer, unassigned) [Example 287-B]",118 nM,184 nM,–
"COc1cc(-c2cc(C(=O)N3CC[C@H](C(=O)NCc4ccc5[nH]nc(F)c5c4)CC34CC4)n[nH]2)c(F)cn1 (single isomer, unassigned) [Example 288-A]",4.4 nM,0.9 nM,–
"COc1cc(-c2cc(C(=O)N3CC[C@@H](C(=O)NCc4ccc5[nH]nc(F)c5c4)CC34CC4)n[nH]2)c(F)cn1 (single isomer, unassigned) [Example 288-B]",39 nM,56.8 nM,–
"CO[C@]1(C(F)(F)F)CC[C@@H](NC(=O)[C@@H]2CCN(C(=O)c3cc(-c4cc(C)ncc4F)[nH]n3)C3(CC3)C2)CC1 (single isomer, unassigned) [Example 293-A]",281 nM,874 nM,–
"CO[C@]1(C(F)(F)F)CC[C@H](NC(=O)[C@@H]2CCN(C(=O)c3cc(-c4cc(C)ncc4F)[nH]n3)C3(CC3)C2)CC1 (single isomer, unassigned) [Example 293-B]",1640 nM,3240 nM,–
"CO[C@]1(C(F)(F)F)CC[C@@H](NC(=O)[C@H]2CCN(C(=O)c3cc(-c4cc(C)ncc4F)[nH]n3)C3(CC3)C2)CC1 (single isomer, unassigned) [Example 293-C]",2.8 nM,1.6 nM,–
"CO[C@]1(C(F)(F)F)CC[C@H](NC(=O)[C@H]2CCN(C(=O)c3cc(-c4cc(C)ncc4F)[nH]n3)C3(CC3)C2)CC1 (single isomer, unassigned) [Example 293-D]",17 nM,86 nM,–

Compound,AC50 [1],"IC50 ([2]; Homo sapiens, UM-UC-9, 144 h)",IC50 [2]
"CCOC1(C(F)(F)F)CCC(NC(=O)[C@@H]2C[C@H]3CC[C@@H](C2)N3C(=O)c2cc(-c3cc(OC)ncc3F)[nH]n2)CC1 (single isomer, unassigned) [Example 303-B]",29.8 nM,82 nM,–
"CCO[C@]1(C(F)(F)F)CC[C@@H](NC(=O)[C@H]2CCN(C(=O)c3cc(-c4cc(C)ncn4)[nH]n3)C3(CC3)C2)CC1 (single isomer, unassigned) [Example 308-C]",2 nM,5.9 nM,–
"CCO[C@]1(C(F)(F)F)CC[C@H](NC(=O)[C@H]2CCN(C(=O)c3cc(-c4cc(C)ncn4)[nH]n3)C3(CC3)C2)CC1 (single isomer, unassigned) [Example 308-D]",25.6 nM,192 nM,–
"CCO[C@]1(C(F)(F)F)CC[C@@H](NC(=O)[C@@H]2CCN(C(=O)c3cc(-c4cc(C)ncn4)[nH]n3)C3(CC3)C2)CC1 (single isomer, unassigned) [Example 308-E]",635 nM,2560 nM,–
"CCO[C@]1(C(F)(F)F)CC[C@H](NC(=O)[C@@H]2CCN(C(=O)c3cc(-c4cc(C)ncn4)[nH]n3)C3(CC3)C2)CC1 (single isomer, unassigned) [Example 308-F]",6360 nM,192 nM,–
"CO[C@]1(C(F)(F)F)CC[C@@H](NC(=O)[C@H]2CCN(C(=O)c3cc(-c4cc(C)ncn4)[nH]n3)C3(CC3)C2)CC1 (single isomer, unassigned) [Example 309-A]",2.9 nM,5.4 nM,–
"CO[C@]1(C(F)(F)F)CC[C@H](NC(=O)[C@H]2CCN(C(=O)c3cc(-c4cc(C)ncn4)[nH]n3)C3(CC3)C2)CC1 (single isomer, unassigned) [Example 309-B]",49.5 nM,302 nM,–
"CO[C@]1(C(F)(F)F)CC[C@@H](NC(=O)[C@@H]2CCN(C(=O)c3cc(-c4cc(C)ncn4)[nH]n3)C3(CC3)C2)CC1 (single isomer, unassigned) [Example 309-C]",720 nM,6200 nM,–
"CO[C@]1(C(F)(F)F)CC[C@H](NC(=O)[C@@H]2CCN(C(=O)c3cc(-c4cc(C)ncn4)[nH]n3)C3(CC3)C2)CC1 (single isomer, unassigned) [Example 309-D]",1320 nM,3680 nM,–
"CCO[C@]1(C(F)(F)F)CC[C@@H](NC(=O)[C@@H]2CCN(C(=O)c3cc(-c4cc(OC)ncc4F)[nH]n3)C3(CC3)C2)CC1 (single isomer, unassigned) [Example 312-A]",172 nM,493 nM,–
"CCO[C@]1(C(F)(F)F)CC[C@@H](NC(=O)[C@H]2CCN(C(=O)c3cc(-c4cc(OC)ncc4F)[nH]n3)C3(CC3)C2)CC1 (single isomer, unassigned) [Example 312-B]",2.5 nM,1.8 nM,–
"COc1cc(-c2cc(C(=O)N3CC[C@@H](C(=O)NCC45CCC(O)(CC4)CC5)CC34CC4)n[nH]2)c(F)cn1 (single isomer, unassigned) [Example 313-A]",1290 nM,3890 nM,–
"COc1cc(-c2cc(C(=O)N3CC[C@H](C(=O)NCC45CCC(O)(CC4)CC5)CC34CC4)n[nH]2)c(F)cn1 (single isomer, unassigned) [Example 313-B]",3.5 nM,13.9 nM,–
"COc1cc(-c2cc(C(=O)N3CCC(C(=O)NCC45CCC(O)(CC4)C5)CC34CC4)n[nH]2)c(F)cn1 (single isomer, unassigned) [Example 333-A]",1960 nM,–,9440 nM
"COc1cc(-c2cc(C(=O)N3CCC(C(=O)NCC45CCC(O)(CC4)C5)CC34CC4)n[nH]2)c(F)cn1 (single isomer, unassigned) [Example 333-B]",6.7 nM,–,33.2 nM
